Values quoted from earlier work as cited in patent US20050191370A1, “Vitamin/metal salt compositions for reducing hair loss and/or promoting hair regrowth” (L'OREAL, priority 2000, published 2005).

System: lung cancers in smokers

SMILES: CC1=C(/C=C/C(C)=C/C=C/C(C)=C/C=C/C=C(C)/C=C/C=C(C)/C=C/C2=C(C)CCCC2(C)C)C(C)(C)CCC1 [beta-carotene]
- decrease in the incidence of lung cancers (after 5 years of administration): No decrease
- additional deaths (men who received beta-carotene, population of 29,139 men who were smokers): 8%
- increase in lung cancers (men who received beta-carotene, population of 29,139 men who were smokers, Finland): 18%
